Source: publication PMC10495264 (Nature Cell Biology, 2023)
“And” between values parts separate entries of the source, which are not always exact repeats. Identical values can stand only once.

Assays:
[1] = target: T1, mTORC1 containing mTOR^K1218R; experiment: mTORC1 IVK with SBP-tagged mTOR^K1218R and HA–Raptor; type: biochemical, human; conditions: presence or absence of 5 mM Mal-CoA
T1 construct: expressed in transfected cells; host or cells: HEK293FT
Protocol: Briefly, cells of a near-confluent well of a six-well plate were lysed in CHAPS IP buffer (50 mM Tris pH 7.5, 0.3% CHAPS detergent, 150 mM NaCl, 50 mM NaF, 2 mM Na-vanadate and 0.011 g ml^−1 β-glycerophosphate) supplemented with 1×PhosSTOP phosphatase inhibitors and 1×EDTA-free cOmplete protease inhibitors for 10 min on ice, and the samples were clarified by centrifugation (20,000g, 15 min, 4 °C). Each supernatant was split in three equal fractions and each fraction was incubated (4 °C with rotation) with 20 μl of pre-washed Streptavidin Sepharose (cat. no. 90100484, Cytiva) for 1 h. The beads were then washed three times with CHAPS IP wash buffer (50 mM Tris pH 7.5, 0.3% CHAPS, 150 mM NaCl and 50 mM NaF) and either used for IVK assays (‘Mammalian mTORC1 kinase activity assays’ section) or boiled in 2×SDS loading buffer (5 min, 95 °C) and analysed by SDS–PAGE and immunoblotting to assess the stability of the mTOR complex.
In vitro activity assays were performed as described earlier for endogenous mTOR complexes.
Endogenous mTOR was immunoprecipitated in the presence or absence of 1 mM Mal-CoA (added directly in the lysates 5 min previous to addition of the antibody). Co-immunoprecipitation of Raptor and mLST8 assayed by immunoblotting; n = 2 independent experiments. c, Mal-CoA inhibits mTORC1 independently from mTOR malonylation. […] Data are the mean ± s.d. (a) or mean ± s.e.m. […]

[2] = target: T2, TORC1 (Saccharomyces cerevisiae, UniProt P35169); experiment: Yeast TORC1 kinase activity assays (radioactive IVK, Lst4^Loop substrate); type: biochemical; conditions: for In vitro TORC1 kinase assay - CoA compounds, relative activity, Mean: Fig. 8b; for In vitro TORC1 kinase assay - Mal-CoA/ATP competition, relative activity, Mean: Fig. 8h
T2 construct: made in house; host or cells: S. cerevisiae strain NIC005 ([RL170-2c] LEU2:GFP-TOR1)
T2 sequence (P35169 whole entry): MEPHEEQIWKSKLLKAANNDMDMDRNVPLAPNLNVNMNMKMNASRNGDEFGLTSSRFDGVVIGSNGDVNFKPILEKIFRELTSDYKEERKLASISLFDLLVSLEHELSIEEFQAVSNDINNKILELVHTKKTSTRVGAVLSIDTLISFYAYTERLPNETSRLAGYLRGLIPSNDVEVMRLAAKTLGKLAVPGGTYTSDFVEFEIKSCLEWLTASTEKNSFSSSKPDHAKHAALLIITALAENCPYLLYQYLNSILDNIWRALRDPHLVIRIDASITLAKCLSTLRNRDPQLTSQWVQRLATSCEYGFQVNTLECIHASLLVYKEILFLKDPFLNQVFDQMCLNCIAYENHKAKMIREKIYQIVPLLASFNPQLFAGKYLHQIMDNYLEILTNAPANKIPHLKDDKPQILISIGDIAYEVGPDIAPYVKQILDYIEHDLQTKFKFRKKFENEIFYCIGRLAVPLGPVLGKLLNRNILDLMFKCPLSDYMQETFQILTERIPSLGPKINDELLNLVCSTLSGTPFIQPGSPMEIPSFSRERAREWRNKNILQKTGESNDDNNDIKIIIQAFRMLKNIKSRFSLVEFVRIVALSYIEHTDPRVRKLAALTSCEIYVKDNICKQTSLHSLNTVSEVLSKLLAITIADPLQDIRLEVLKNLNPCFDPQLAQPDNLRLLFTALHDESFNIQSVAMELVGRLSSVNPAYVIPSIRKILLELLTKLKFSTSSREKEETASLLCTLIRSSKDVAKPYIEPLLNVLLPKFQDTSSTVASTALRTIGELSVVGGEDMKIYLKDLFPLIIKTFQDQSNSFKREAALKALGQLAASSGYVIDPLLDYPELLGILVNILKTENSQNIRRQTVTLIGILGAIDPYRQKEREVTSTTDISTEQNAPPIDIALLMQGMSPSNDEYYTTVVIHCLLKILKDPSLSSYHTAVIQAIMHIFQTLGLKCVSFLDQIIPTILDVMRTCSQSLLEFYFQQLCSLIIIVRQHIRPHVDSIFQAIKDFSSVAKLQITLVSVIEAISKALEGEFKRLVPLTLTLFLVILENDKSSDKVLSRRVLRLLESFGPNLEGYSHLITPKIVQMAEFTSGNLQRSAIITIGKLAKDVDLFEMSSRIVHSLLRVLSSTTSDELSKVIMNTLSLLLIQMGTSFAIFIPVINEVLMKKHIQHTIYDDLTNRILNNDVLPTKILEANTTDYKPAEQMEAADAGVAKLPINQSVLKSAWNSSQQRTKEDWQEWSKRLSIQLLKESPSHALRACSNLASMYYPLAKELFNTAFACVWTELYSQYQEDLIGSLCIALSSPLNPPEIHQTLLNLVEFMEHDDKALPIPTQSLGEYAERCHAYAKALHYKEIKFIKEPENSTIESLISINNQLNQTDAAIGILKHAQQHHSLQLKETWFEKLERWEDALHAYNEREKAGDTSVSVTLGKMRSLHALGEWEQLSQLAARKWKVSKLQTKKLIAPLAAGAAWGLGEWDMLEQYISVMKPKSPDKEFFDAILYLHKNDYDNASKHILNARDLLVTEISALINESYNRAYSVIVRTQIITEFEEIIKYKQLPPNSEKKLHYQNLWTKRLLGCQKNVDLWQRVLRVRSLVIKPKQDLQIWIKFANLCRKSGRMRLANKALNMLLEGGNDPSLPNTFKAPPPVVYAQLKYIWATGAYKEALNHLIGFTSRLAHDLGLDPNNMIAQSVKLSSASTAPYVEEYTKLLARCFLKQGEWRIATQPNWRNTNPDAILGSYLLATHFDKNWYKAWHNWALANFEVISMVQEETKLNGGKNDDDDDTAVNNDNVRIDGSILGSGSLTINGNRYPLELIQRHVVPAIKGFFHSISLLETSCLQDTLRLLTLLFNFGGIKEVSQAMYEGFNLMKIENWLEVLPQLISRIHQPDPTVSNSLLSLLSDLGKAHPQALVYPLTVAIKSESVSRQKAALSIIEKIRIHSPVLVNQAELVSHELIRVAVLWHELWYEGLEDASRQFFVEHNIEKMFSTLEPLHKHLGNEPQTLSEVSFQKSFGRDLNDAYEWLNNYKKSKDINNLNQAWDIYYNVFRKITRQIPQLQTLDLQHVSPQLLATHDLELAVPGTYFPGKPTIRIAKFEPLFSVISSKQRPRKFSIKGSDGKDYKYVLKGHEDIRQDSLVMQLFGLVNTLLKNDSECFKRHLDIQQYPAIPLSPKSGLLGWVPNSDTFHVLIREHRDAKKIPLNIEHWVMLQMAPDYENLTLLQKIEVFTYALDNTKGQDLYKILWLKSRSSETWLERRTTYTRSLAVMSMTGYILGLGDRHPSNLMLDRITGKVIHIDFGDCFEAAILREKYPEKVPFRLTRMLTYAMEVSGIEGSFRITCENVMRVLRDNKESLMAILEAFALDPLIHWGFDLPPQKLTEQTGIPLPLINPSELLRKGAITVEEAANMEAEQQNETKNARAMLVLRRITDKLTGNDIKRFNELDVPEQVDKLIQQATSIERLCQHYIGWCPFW
T2 sequence (Q08921 whole entry partner): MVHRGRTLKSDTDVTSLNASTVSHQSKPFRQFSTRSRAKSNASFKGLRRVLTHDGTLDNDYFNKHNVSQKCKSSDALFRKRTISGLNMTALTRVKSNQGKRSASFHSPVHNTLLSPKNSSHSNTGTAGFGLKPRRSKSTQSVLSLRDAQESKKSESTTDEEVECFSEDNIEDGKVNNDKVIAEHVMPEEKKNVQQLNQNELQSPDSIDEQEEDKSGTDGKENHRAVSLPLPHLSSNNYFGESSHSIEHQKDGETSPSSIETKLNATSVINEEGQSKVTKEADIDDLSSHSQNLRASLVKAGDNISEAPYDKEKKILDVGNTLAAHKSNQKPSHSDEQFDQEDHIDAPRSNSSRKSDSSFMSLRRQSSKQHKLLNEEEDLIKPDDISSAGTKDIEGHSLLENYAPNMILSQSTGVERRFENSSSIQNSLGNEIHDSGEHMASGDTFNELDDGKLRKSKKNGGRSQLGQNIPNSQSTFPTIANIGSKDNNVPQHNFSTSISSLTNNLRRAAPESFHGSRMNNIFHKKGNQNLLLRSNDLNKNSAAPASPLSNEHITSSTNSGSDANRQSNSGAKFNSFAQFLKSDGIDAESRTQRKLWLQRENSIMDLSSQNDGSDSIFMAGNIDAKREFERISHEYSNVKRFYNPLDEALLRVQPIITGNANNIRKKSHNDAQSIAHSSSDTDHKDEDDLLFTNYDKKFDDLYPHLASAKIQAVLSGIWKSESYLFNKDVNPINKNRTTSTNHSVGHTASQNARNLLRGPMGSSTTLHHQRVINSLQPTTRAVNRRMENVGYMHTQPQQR
T2 sequence (P38873 whole entry partner): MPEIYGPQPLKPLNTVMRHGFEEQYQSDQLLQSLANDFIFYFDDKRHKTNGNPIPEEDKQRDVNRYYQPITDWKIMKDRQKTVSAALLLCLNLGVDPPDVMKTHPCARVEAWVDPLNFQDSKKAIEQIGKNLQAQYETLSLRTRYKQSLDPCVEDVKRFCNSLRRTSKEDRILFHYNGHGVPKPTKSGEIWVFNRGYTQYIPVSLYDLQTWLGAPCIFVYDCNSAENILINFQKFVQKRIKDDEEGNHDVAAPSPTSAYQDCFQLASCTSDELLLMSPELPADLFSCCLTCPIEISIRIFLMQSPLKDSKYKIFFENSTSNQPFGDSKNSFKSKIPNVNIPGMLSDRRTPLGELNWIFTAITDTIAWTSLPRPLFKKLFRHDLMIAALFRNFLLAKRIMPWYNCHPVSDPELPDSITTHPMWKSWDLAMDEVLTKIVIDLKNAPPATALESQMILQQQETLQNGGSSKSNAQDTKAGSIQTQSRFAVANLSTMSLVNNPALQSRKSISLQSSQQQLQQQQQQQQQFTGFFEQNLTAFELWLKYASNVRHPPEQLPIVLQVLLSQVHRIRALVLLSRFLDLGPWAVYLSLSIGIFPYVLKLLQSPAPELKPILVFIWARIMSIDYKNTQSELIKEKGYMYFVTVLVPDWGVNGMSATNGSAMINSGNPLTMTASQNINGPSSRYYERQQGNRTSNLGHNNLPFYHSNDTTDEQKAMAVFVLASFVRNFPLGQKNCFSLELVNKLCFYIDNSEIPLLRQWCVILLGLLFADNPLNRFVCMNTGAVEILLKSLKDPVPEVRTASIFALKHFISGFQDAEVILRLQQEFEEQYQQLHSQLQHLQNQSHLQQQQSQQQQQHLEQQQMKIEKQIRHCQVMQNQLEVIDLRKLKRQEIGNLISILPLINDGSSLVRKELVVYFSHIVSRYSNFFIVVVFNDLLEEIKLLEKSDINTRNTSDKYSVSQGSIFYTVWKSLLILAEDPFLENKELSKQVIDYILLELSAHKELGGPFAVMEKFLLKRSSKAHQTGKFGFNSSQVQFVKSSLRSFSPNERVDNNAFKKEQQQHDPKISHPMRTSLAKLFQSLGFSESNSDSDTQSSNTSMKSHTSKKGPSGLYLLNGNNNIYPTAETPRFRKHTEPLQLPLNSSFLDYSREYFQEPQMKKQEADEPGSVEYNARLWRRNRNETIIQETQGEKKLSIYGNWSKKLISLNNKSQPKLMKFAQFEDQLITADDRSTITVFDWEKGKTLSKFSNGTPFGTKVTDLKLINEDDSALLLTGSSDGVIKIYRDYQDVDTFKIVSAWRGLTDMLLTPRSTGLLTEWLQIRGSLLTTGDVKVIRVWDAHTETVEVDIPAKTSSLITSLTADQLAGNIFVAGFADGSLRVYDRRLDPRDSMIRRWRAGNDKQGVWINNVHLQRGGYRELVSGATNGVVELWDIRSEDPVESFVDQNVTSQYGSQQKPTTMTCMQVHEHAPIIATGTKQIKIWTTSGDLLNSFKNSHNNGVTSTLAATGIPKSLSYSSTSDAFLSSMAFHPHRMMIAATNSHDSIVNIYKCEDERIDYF
T2 sequence (P41318 whole entry partner): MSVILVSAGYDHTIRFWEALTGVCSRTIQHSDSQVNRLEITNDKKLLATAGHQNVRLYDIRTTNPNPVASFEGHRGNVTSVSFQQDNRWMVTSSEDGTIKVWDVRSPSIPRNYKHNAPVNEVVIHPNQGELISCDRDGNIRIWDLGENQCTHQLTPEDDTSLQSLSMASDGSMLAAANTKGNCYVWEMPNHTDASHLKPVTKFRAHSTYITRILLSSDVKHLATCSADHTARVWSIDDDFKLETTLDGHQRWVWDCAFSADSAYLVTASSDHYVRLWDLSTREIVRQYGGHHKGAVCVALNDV
Protocol: TORC1 was purified from yeast cells and radioactive IVK assays were performed essentially as previously described. Briefly, kinase reactions (total volume, 30 μl) were performed with 400 ng of purified His6–Lst4^Loop protein and 60 ng TORC1 in kinase buffer (50 mM HEPES NaOH pH 7.5 and 150 mM NaCl). […] All reactions were carried out at 30 °C for 10 min and stopped with the addition of 3×sample buffer (50 mM Tris–HCl pH 6.8, 5% SDS, 0.05% bromophenol blue, 630 mM DTT and 30% glycerol) and heating at 65 °C for 10 min. Proteins were separated by SDS–PAGE and stained in-gel with SYPRO Ruby (S4942, Sigma-Aldrich) as the loading control. Substrate phosphorylation was analysed by autoradiography using a Typhoon FLA 9500 phosphorimager (GE Healthcare) and the raw density of the signals was quantified using the gel analysis tool of ImageJ.

[3] = tested on: TORC1; experiment: TORC1 activity in yeast cells, p-Sch9^T737/Sch9 immunoblot; type: cell-based, Saccharomyces cerevisiae; conditions: for p-Sch9(T737)/Sch9 (relative TORC1 activity), Mean: yeast, untreated = 1, n = 4, Fig. 2c
[4] = tested on: total protein malonylation; experiment: Lysine malonylation in yeast cells, Mal-K/Adh1 immunoblot; type: cell-based, Saccharomyces cerevisiae; conditions: cerulenin 20 μM, 2 h, wt Ctrl = 1, Fig. 3i
[5] = tested on: mTOR and FASN malonylation; experiment: Malonylation of immunopurified mTOR and FASN (anti-Mal-K) from HEK293FT cells; type: cell-based, human
Protocol: Protein malonylation was assayed by immunoblotting using a Mal-K-specific antibody.

Q: With `CC(C)(COP(=O)(O)OP(=O)(O)OCC1OC(n2cnc3c(N)ncnc32)C(O)C1OP(=O)(O)O)C(O)C(=O)NCCC(=O)NCCSC(=O)CC(=O)O` (stereo not shown) [Mal-CoA, malonyl-CoA] as the compound, how does the “kinase activity of mTORC1 containing non-malonylatable mTOR^K1218R” value [1] read?
A: readily inhibited

Q: And the IC50 [2]?
A: 334 µM

Q: What about the Ki [2] of the same compound?
A: 760 µM

Q: What about the “In vitro TORC1 kinase assay - CoA compounds, relative activity, Mean” value ([2]; compound 0.073 mM, normalised to this concentration) of the same compound?
A: 1

Q: What about the “In vitro TORC1 kinase assay - CoA compounds, relative activity, Mean” value ([2]; compound 0.22 mM) of the same compound?
A: 0.8807

Q: What about the “In vitro TORC1 kinase assay - CoA compounds, relative activity, Mean” value ([2]; compound 2 mM) of the same compound?
A: 0.6407

Q: What about the “In vitro TORC1 kinase assay - CoA compounds, relative activity, Mean” value ([2]; compound 6 mM) of the same compound?
A: 0.5014

Q: What about the “In vitro TORC1 kinase assay - Mal-CoA/ATP competition, relative activity, Mean” value ([2]; Mal-CoA 2 mM, ATP 0.015 mM) of the same compound?
A: 0.1115

Q: What about the “In vitro TORC1 kinase assay - Mal-CoA/ATP competition, relative activity, Mean” value ([2]; Mal-CoA 2 mM, ATP 0.044 mM) of the same compound?
A: 0.189

Q: And the “In vitro TORC1 kinase assay - Mal-CoA/ATP competition, relative activity, Mean” value ([2]; Mal-CoA 2 mM, ATP 0.4 mM)?
A: 0.6161

Q: What about the “In vitro TORC1 kinase assay - Mal-CoA/ATP competition, relative activity, Mean” value ([2]; Mal-CoA […], ATP 0.015 mM) of the same compound?
A: 0.1191

Q: And the “In vitro TORC1 kinase assay - Mal-CoA/ATP competition, relative activity, Mean” value ([2]; Mal-CoA […], ATP 0.044 mM)?
A: 0.2424

Q: What about the “In vitro TORC1 kinase assay - Mal-CoA/ATP competition, relative activity, Mean” value ([2]; Mal-CoA […], ATP 0.4 mM) of the same compound?
A: 0.6289

Q: `C/C=C/C/C=C/CCC(=O)[C@H]1O[C@H]1C(N)=O` [cerulenin] was tested. Which “p-Sch9(T737)/Sch9, Mean” value [3] did it give?
A: 0.2682 and 0.4097

Q: And the “TORC1 activity (phosphorylation of Sch9) in vivo” value ([3]; cerulenin-treated yeast, Fig. 2a,c)?
A: strongly reduced

Q: What about the “p-Sch9(T737)/Sch9 (relative TORC1 activity), Mean” value ([3]; 20 μM cerulenin 2h) of the same compound?
A: 0.4698

Q: And the “p-Sch9(T737)/Sch9 (relative TORC1 activity), Mean” value ([3]; 20 μM cerulenin 3h)?
A: 0.1772

Q: And the “p-Sch9(T737)/Sch9 (relative TORC1 activity), Mean” value ([3]; 20 μM cerulenin 4h)?
A: 0.1415

Q: What about the “Mal-K/Adh1, Mean” value ([4]; acc1S1157A yeast) of the same compound?
A: 8.735

Q: And the “Mal-K/Adh1, Mean” value ([4]; wt yeast)?
A: 8.631

Q: And the “lysine malonylation of immunopurified human FASN” value ([5]; cerulenin-treated (50 μM, 4 h) vs control)?
A: malonylation increasing further

Q: What about the “malonylation of immunopurified human mTOR” value ([5]; control or cerulenin-treated (50 μM, 4 h)) of the same compound?
A: unable to detect malonylation
